Series [1] deals with α1-adrenergic receptor. Put plainly: Displacement of specific binding of [3H]prazosin from rat forebrain membranes. The note with it: IC50 for displacement of specific binding, 0.2 nM radioligand. As for the experimental part: Compounds of the formula I have selectivity for NR^2B subunit-containing NMDA receptors over α1-adrengergic receptors. Affinity for the NR^2B subunit containing NMDA receptor is measured as the IC50 for displacement of specific binding of racemic [^3H] (+)-(1S, 2S)-1-(4-hydroxy-phenyl)-2-(4-hydroxy-4-phenylpiperidino)-1-propanol from rat forebrain membranes (described above). Affinity for the α1-adrengergic receptor is defined as the IC50 for displacement of specific binding of racemic [^3H]prazosin from rat brain membranes, measured as described by Greengrass and Bremner (Binding Characteristics of [3H]prazosin to Rat Brain α-Adrenergic Receptors, European Journal of Pharmacology, 55, 323-326, (1979)).
Forebrains of adult male Sprague Dawley rats are homogenized in 20 volumes of ice cold 50 mM Tris/HCl buffer (pH 7.7). The homogenate is centrifuged at 50,000×g for 10 minutes at 4° C. The pellet is resuspended and centrifuged under identical conditions and the final pellet is resuspended in 80 volumes of 50 mM Tris/HCl (pH 8.0) at 4° C.
For binding assays, compounds under study are added at various concentrations to 500 μg membrane protein in 1 ml of 50 mM Tris/HCl buffer, followed by [^3H]prazosin (Amersham, specific activity 33 Ci/mmol, 0.2 nM final concentration). Following incubation for 30 min at 25° C. in a shaking water bath, samples are filtered onto Whatman GFB glass fiber filters using a MB-48R Cell Harvester (Brandel Research and Development Laboratories, Gaithersburg Md.). Filters are washed three times for 10 s with ice cold Tris HCl buffer and the radioactivity trapped on the filter quantified by liquid scintillation spectroscopy. Nonspecific binding is determined in parallel incubations containing 100 nM prazosin. Specific binding is defined as total binding minus nonspecific binding.

Series [2] has as its target T1, NR2B subunit containing NMDA receptor (Rattus norvegicus, UniProt P35439+Q00960).
T1 construct: (+)-(1S, 2S)-1-(4-hydroxy-phenyl)-2-(4-hydroxy-4-phenylpiperidino)-1-propanol from rat forebrain membranes; from tissue; host or cells: forebrain membranes of adult male CD rats
Put plainly: Displacement of specific binding of racemic [3H](+)-(1S,2S)-1-(4-hydroxy-phenyl)-2-(4-hydroxy-4-phenylpiperidino)-1-propanol ([3H]CP-101,606) from rat forebrain membranes. The note with it: ratio of the IC50s; greater than three is considered selective for NR2B over α1. As for the experimental part:
This affinity is assessed in a radioligand binding assay as described later in this application.
This affinity is assessed in a radioligand binding assay as described below.
The binding of racemic [^3H] […] Forebrains of adult male CD rats are homogenized in 0.32M sucrose at 4° C. The crude nuclear pellet is removed by centrifugation at 1,000×g for 10 minutes, and the supernatant centrifuged at 17,000×g for 25 minutes. The resulting pellet is resuspended in 5 mM Tris acetate pH 7.4 at 4° C. for 10 minutes to lyse cellular particles and again centrifuged at 17,000×g. The resulting pellet is washed twice in Tris acetate, resuspended at 10 mg protein/ml and stored at −20° C. until use.
For binding assays, membranes are thawed, homogenized, and diluted to 0.5 mg protein/ml with 50 mM Tris HCl, pH 7.4. Compounds under study are added at various concentrations followed by racemic [^3H] […] Following incubation for 20 min at 30° C. in a shaking water bath, samples are filtered onto Whatman GFB glass fiber filters using a MB-48R Cell Harvester (Brandel Research and Development Laboratories, Gaithersburg Md.). Filters are washed for 10 s with ice cold Tris HCl buffer and the radioactivity trapped on the filter quantified by liquid scintillation spectroscopy. Nonspecific binding is determined in parallel incubations containing 100 μM racemic (+)-(1 S, 2S)-1-(4-hydroxy-phenyl)-2-(4-hydroxy-4-phenylpiperidino)-1-propanol. Specific binding is defined as total binding minus nonspecific binding.
Affinity for the NR^2B subunit containing NMDA receptor is measured as the IC50 for displacement of specific binding of racemic [^3H] […] Affinity for the α1-adrengergic receptor is defined as the IC50 for displacement of specific binding of racemic [^3H]prazosin from rat brain membranes, measured as described by Greengrass and Bremner (Binding Characteristics of [3H]prazosin to Rat Brain α-Adrenergic Receptors, European Journal of Pharmacology, 55, 323-326, (1979)).

T1 sequence (Q00960 27-1482, other chains not shown): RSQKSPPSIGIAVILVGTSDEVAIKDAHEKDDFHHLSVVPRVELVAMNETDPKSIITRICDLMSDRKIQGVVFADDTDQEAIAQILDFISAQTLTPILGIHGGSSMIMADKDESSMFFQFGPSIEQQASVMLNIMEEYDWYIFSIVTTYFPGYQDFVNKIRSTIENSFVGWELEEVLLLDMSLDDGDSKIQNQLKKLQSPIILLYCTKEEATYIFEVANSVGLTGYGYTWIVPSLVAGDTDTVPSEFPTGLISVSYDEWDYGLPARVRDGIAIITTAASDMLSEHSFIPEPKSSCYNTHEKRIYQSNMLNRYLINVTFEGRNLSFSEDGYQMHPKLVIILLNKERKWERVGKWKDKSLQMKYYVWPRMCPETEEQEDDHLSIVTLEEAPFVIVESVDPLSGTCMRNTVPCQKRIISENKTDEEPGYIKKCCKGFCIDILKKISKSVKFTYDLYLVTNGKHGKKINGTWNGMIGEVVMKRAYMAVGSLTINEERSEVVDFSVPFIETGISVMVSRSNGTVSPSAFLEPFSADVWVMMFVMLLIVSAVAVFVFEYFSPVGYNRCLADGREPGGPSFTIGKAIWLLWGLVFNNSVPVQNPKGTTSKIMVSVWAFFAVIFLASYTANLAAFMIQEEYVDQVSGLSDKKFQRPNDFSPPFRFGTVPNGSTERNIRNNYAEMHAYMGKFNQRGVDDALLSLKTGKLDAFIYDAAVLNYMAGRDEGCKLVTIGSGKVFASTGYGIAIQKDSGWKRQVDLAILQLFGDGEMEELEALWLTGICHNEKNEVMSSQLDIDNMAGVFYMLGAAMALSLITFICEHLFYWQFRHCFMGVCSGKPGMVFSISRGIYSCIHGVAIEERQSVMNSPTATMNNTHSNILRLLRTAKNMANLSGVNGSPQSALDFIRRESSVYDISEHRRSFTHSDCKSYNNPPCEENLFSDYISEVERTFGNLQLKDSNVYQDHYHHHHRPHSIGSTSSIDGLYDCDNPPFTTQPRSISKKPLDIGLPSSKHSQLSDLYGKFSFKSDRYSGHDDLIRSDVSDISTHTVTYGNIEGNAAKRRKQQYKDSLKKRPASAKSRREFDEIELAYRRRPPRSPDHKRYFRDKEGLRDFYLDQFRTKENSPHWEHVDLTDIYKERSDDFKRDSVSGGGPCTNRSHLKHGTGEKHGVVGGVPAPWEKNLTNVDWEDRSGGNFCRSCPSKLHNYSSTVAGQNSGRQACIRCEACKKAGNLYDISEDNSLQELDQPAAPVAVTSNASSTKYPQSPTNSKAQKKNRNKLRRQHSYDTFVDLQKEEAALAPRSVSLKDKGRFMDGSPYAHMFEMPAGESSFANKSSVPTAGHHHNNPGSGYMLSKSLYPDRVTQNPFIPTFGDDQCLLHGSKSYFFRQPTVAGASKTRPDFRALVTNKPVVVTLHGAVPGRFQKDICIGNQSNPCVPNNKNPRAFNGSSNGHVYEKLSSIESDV

As to `COc1cc([C@H](O)[C@H](C)N2CCC(O)(c3ccccc3)CC2)ccc1O` [(1S, 2S)-1-(4-hydroxy-3-methoxyphenyl)-2-(4-hydroxy-4-phenylpiperidino)-1-propanol], the IC50 in series [1] amounted to 8.1 µM. In series [2], the “Ratio [^3H]Prazosin/[^3H] (+)-(1S, 2S)-1-(4-hydroxy-phenyl)-2-(4-hydroxy-4-phenylpiperidino)-1-propanol” value (from here on “Ratio [^3H]Prazosin/[^3H]”) turned out to be 86.

`Oc1ccc2c(c1)OCC(N1CCC(O)(c3ccc(F)cc3)CC1)[C@H]2O` (stereo in doubt) yielded a melting point of 159 to 160 °C.

On to `OC(CN1CCC(Cc2ccc(F)cc2)CC1)c1ccc(Cl)cc1` (centres unmarked) [Eliprodil, reference compound], for which the IC50 in series [1] was 0.98 ± 0.22 µM. Further, in series [2], the “Ratio [^3H]Prazosin/[^3H]” value amounted to 2.2. `C[C@@H]([C@@H](O)c1ccc(O)cc1)N1CCC(O)(c2ccccc2)CC1` [(+)-(1S, 2S)-1-(4-hydroxy-phenyl)-2-(4-hydroxy-4-phenylpiperidino)-1-propanol] came in with a 50% inhibitory concentration (IC50) in series [1] of 19.5 µM. Compound `Oc1ccc2c(c1)OC[C@@H](N1CCC(O)(c3ccc(F)cc3)CC1)[C@H]2O` [(3R, 4S)-3-(4-(4-fluorophenyl)-4-hydroxypiperidin-1-yl)-chroman-4,7-diol] displayed an IC50 in series [1] of more than 10 µM. Also, the “Ratio [^3H]Prazosin/[^3H]” value in series [2] is on record as “≧555”.

For the origin of these results see patent US6821985B2, “Pharmaceutical combinations for the treatment of stroke and traumatic brain injury” (Pfizer, Inc., priority 2000, dated 2004).
